Results from PMC4389225, “Triaminopyrimidine is a fast-killing and long-acting antimalarial clinical candidate” (Nature Communications, 2015).

Key:
[1] = test system: Dd2-6R F4 D4; assay: SYBR green growth assay, Dd2-6R F4 D4; details: Plasmodium falciparum
Method: (§1) Assays were carried out in 384-well format with three technical replicates within an assay day and biological replicates carried out on three different assay days to assign a final EC50.
(§2) The drug was then washed off and the parasites were allowed to recover in normal growth media.

[2] = test system: Dd2 PfATP4 NITD609; assay: [3H]-hypoxanthine incorporation assay, Dd2 PfATP4 NITD609 resistant; format: cell-based; details: Plasmodium falciparum
Method: Supplementary Table 3: Compound 9 and 12 retain their activity against Pf strains harbouring mutations to novel antimalarial agents in clinical development. Compound 9 and 12 were tested for their antiplasmodial activity against a panel of Pf strains known to harbour mutations conferring resistance to novel agents under clinical development. Parasite growth inhibition is measured using the [3H]-hypoxanthine incorporation assay. IC50s are established for each strain (n ≥2) and compared to the IC50 of Dd2 (standard pan-resistant […]

[3] = test system: Dd2-6R F2 B5; assay: SYBR green growth assay, Dd2-6R F2 B5
Method: as §1, §2

[4] = Acute anaesthetized guinea pig cardiovascular (CVS) model, compound 12; format: in vivo
Method: Male Dunkin Hartley guinea pigs (n=6 per group; 342–401 g; 4–5 weeks old; Charles River Laboratories, L’Arbresle, Cedex) were anaesthetized with sodium pentobarbitone (60 mg kg^−1 intraperitoneally followed by 6 mg kg^−1 h^−1 i.v. (jugular) for maintenance) and mechanically ventilated. Animals were surgically prepared for the measurement of haemodynamic (blood pressure, heart rate and contractility (including left ventricular pressure)) and electrocardiographic (ECG)-derived parameters (QTcB, PR interval and QRS duration). Briefly, catheters were introduced into a carotid artery and a jugular vein for the measurement of arterial blood pressure and administration of the test item, respectively. Needle electrodes were placed subcutaneously in a lead II position for ECG recording. A fluid-filled catheter was introduced into the left ventricle via the opposite carotid artery for left ventricular pressure measurement.
Animals received two consecutive i.v. infusions of either vehicle (group 1; 40% v/v dimethylacetamide/20% v/v polyethylene glycol 400/17% w/v hydroxyl propyl beta cyclodextrin (HPβCD/kleptose) in water for injection) or compound 12 at 10 or 30 mg kg^−1 (group 2). Each infusion lasted for 15 min at a dose volume of 3 ml kg^−1 (rate of 0.2 ml kg^−1 min^−1). Animals were monitored for a further 30-min washout period. Blood samples were taken at 5, 10 and 15 min after the start of each infusion and at 5, 10, 20 and 30 min during the washout phase.
Following a stabilization period, haemodynamic and ECG parameters were measured (using HEM software, version 4.3, Notocord Systems) at 10 and 5 min before administration (mean of measurements obtained at these time points=baseline; T0), and 2.5, 5, 10 and 15 min after the start of each i.v. infusion of compound 12 or vehicle and 5, 10, 20 and 30 min after the end of the second infusion. A detailed description of the model, its background and validation has been described earlier.
All parameters were analysed statistically using SAS software. Baseline values were defined as mean of measurments taken 10 or 5 min before dosing. For each parameter, homogeneity of baseline values (T0) between the two groups were tested using a two-tailed Student’s t-test. Changes from baseline were assessed using a two-way analysis of variance (group and time) with repeated measurements over the time and group × time interaction.
Anaesthetised Guinea Pig Cardiovascular toxicity study for compound 12. Group mean ±SEM data are presented in Supplementary Fig. 16a to 16l. Mean ± standard error plasma exposure data are illustrated in Supplementary Fig. 16m. The mean of the two control recording periods was used as a baseline value. Administration of vehicle produced the expected level of variability in cardiovascular parameters over the time course of this study.
This was considered within acceptable ranges for vehicle data. Actual changes caused by compound 12 were derived by subtracting the effect of the time-matched vehicle data and are discussed using mean % change from baseline values. All findings reported below achieved statistical significance (P < 0.05), unless indicated as a trend. Isolated incidences of statistical significance, that show no relation to compound effects, were not considered of […]
Blood pressure, LVP and heart rate effect: Following i.v. administration of compound 12 at 10 mg/kg, the following observations were noted:
- A 15% decrease in dP/dtmax (an index of cardiac contractility).
As the dose increased to 30 mg/kg, the following effects were observed:
- A 8% decrease in heart rate (HR), - A 10% decrease in left ventricular systolic pressure (LVsys), - A 27% decrease in dP/dtmax.
There was evidence of recovery for dP/dtmax during the 30 minutes wash-out period.
Despite attaining statistical significance, the magnitude of the effects on dP/dtmax at […]

[5] = Plasma protein binding, rat
[6] = Hepatocyte Clint, dog; format: in vitro ADME; details: for Predicted blood CL: Dog
Excerpt: Supplementary Note 5: Prediction of human clearance for compound 12 by IVIVE.
Human clearance (CL) was predicted by in vitro-in vivo extrapolation (IVIVE) from the in vitro Clint in human hepatocytes6. In vitro Clint was scaled to in vivo Clint as follows:
Clint in vivo = Clint in vitro * scaling factors * fublood/fuinc
The liver weights used for scaling were 40, 32 and 24 g/kg body weight in rat, dog and human respectively. Hepatocellularity used for scaling was 163, 169 and 120 (X 106) cells/g liver in rat, dog and human respectively. Free fraction in blood was calculated as fuplasma /Blood:Plasma (BP) ratio. BP ratio and free fraction in the hepatocyte incubation mix, fuinc, were measured in vitro. Slope and intercept from the linear regression analysis of IVIVC for a large number of AstraZeneca compounds was applied for final correction in the scaled in vivo Clint. A well stirred model was used for CL prediction.
Where Qh is the liver blood flow. The values of Qh in rat, dog and human are 72, 55 and 20 mL.min-1kg-1 in rat, dog and human, respectively. In vitro parameters, observed in vivo CL and predicted CL are shown in supplementary Table 10. […]
(also on this page, place not known: in vivo in vivo CLintQ CLintQCL Predicted predicted predicted h h + ×=)
(1 picture or pasted object on this page, not shown here)

Compound `Cc1nc(Nc2ncc(N3CCN(C)[C@H](C)C3)c(Nc3cc(C)n(C)n3)n2)cc(C2CC2)c1F` [compound 12, (R)-N2-(4-cyclopropyl-5-fluoro-6-methylpyridin-2-yl)-N4-(1,5-dimethyl-1H-pyrazol-3-yl)-5-(3,4-dimethylpiperazin-1-yl)pyrimidine-2,4-diamine] has an IC50 [1] of 0.0816 µM, an IC50 [2] of 0.0068 µM and an IC50 ([3]; Plasmodium falciparum, DD2) of 0.081 ± 0.0179 µM. The “increase in IC50 compared with the parental Dd2 line” value ([3]; compound 6-resistant Dd2-6R clones (five clones)) was 3-6 fold, the “PR interval, QRS duration and QTcB interval” value ([4]; 10 mg/kg i.v.) was “unaffected” and the “decrease in dP/dtmax (index of cardiac contractility)” value ([4]; 10 mg/kg i.v., vehicle-corrected mean % change from baseline) was 15%. For the same compound, the “decrease in heart rate (HR)” value ([4]; 30 mg/kg i.v.) was 8%, the “decrease in left ventricular systolic pressure (LVsys)” value ([4]; 30 mg/kg i.v.) was 10% and the “increase in QTcB” value ([4]; 30 mg/kg i.v.) was 7%. The “decrease in dP/dtmax” value ([4]; 30 mg/kg i.v., vehicle-corrected mean % change from baseline) was 27%, the “A—plasma Cmax free” value ([4]; guinea pig, 10 mg kg^−1 i.v.) was 90 nM and the “Safety margin (A/B)-free Cmax” value ([4]; guinea pig, 10 mg kg^−1 i.v.) was 10.3. For the same compound, the “Summary of clinical signs and effects” value ([4]; guinea pig, 10 mg kg^−1 i.v., NOEL = no observed effect level) was “NOEL”, the “Peak total plasma concentration” value ([4]; guinea pig, 10 mg/kg i.v.) was 1.69 ± 0.15 µmol/L and the “A—plasma Cmax free” value ([4]; guinea pig, 30 mg kg^−1 i.v.) was 280 nM. For the same compound, the “Safety margin (A/B)-free Cmax” value ([4]; guinea pig, 30 mg kg^−1 i.v.) was 32.2, the “Summary of clinical signs and effects” value ([4]; guinea pig, 30 mg kg^−1 i.v.) was “Contractility and QTcB effects” and the “Peak total plasma concentration” value ([4]; guinea pig, 30 mg/kg i.v.) was 5.05 ± 0.64 µmol/L. The NOEL ([4]; guinea pig, i.v.) was 10 mg/kg, the fraction unbound [5] was 0.04 and the “Predicted blood CL” value [6] was 38 % LBF. For the same compound, the “Predicted blood CL” value ([6]; IVIVC from hepatocyte Clint) was 20.8 mL/min/kg and the hepatocyte CLint ([6]; dog, hepatocytes) was 9.3 µL/min/1e6 cells.
